Test results as given in patent publication US11160790B2, “Method of inhibiting Cryptococcus growth using eltrombopag” (priority 2019, dated 2021).
Values after ≈ are worked out from the molar mass of the structure shown.

Columns and labels:
[1] = system: C. neoformans H99; assay: Growth kinetics in RPMI 1640 (cell density); format: cell-based, Cryptococcus neoformans
Experimental: To study the inhibitory effects of eltrombopag on the growth of Cryptococcus, C. neoformans H99 cells were cultured overnight at 30° C. and then washed twice with double-distilled water. The cells were diluted to 0.0005 OD600/mL with RPMI 1640 medium, and 5 mL of the cell suspension was treated with eltrombopag at 0.5, 0.25, 0.125, 0.06, or 0 mg/L and incubated at 37° C. with shaking at 150 rpm for 4 days. The cell density of the suspensions was measured every 12 hours with a SpectraMax190 microplate reader (Molecular Devices), and growth curves were plotted using Prism 5.03 (GraphPad Software, San Diego, Calif., USA). The experiments were performed in triplicate, and the results were presented as mean±standard deviation.

[2] = system: C. deuterogattii R265; assay: Checkerboard titration assay; format: cell-based, Cryptococcus deuterogattii; conditions: 30° C., 48 hours
Experimental: Amphotericin B plus 5-flucytosine or fluconazole are combinations often used to treat cryptococcal meningitis. To investigate the synergy between eltrombopag and existing antifungal drugs or other drugs, a checkerboard titration assay was performed on Cryptococcus. Briefly, C. neoformans […] and C. deuterogattii […] cells were cultured overnight at 30° C. and then washed twice with double-distilled water. The cells were diluted to 10^3 cfu/mL with RPMI 1640 medium, and 100 μL of the cell suspension was added to each well of a 96-well polystyrene plate. […] After incubation at 30° C. for 48 hours, the growth of cells under different treatments was assessed by measuring the light absorbance at 600 nm (OD600). This assay allows the determination of fractional inhibitory concentration index (FICI): (MICcombined of drug A/MICalone of drug A)+(MICcombined of drug B/MICalone of drug B). After the checkerboard titration assay, the cells (3 μL) in the 96-well plate were transferred to drug-free YPD agar plates. After incubation at 30° C. for 48 hours, the agar plates were photographed and assessed for cell viability.

[3] = system: multiple C. neoformans/C. gattii; assay: Microdilution assay, summary for Cryptococcus species; format: cell-based
Experimental: Cryptococcus and Candida species were cultured in yeast extract-peptone-dextrose (YPD) medium (containing 1% yeast extract, 2% peptone, 2% glucose, and optionally 2% agar for preparation of an agar plate). Aspergillus, Fusarium, and Trichophyton species were cultured on potato dextrose agar (PDA) plate (containing 2% potato infusion, […], and 1.5% agar). A microdilution assay was performed to determine minimum inhibitory concentration (MIC), minimum fungicidal concentration (MFC), and fractional inhibitory concentration (FIC) index (FICI) using RPMI 1640 medium buffered with MOPS. […]
To investigate the inhibitory effects of eltrombopag on the growth of fungi, microdilution assays (based on the CLSI standards M27-A3 and M38-A2) were performed with multiple pathogenic yeasts and filamentous fungi including Cryptococcus, Candida, Aspergillus, Fusarium, and Trichophyton (TABLE 1). […] Thereafter, 3 μL of the fungal culture from each well of the 96-well plates was spotted onto eltrombopag-free YPD (for yeasts) or PDA (for filamentous fungi) agar plates, which were then incubated at 35° C. for 48 hours to examine colony formation Minimum fungicidal concentration (MFC) was determined to be the lowest drug concentration at which no colonies formed. […]

[4] = system: C. neoformans H99; assay: Capsule size assay (India ink); format: cell-based, Cryptococcus neoformans; conditions: 0.06 mg/L, 37° C., 48 hours, versus no eltrombopag treatment
Experimental: Cryptococcus and Candida species were cultured in yeast extract-peptone-dextrose (YPD) medium (containing 1% yeast extract, 2% peptone, 2% glucose, and optionally 2% agar for preparation of an agar plate). Aspergillus, Fusarium, and Trichophyton species were cultured on potato dextrose agar (PDA) plate (containing 2% potato infusion, […], and 1.5% agar). A microdilution assay was performed to determine minimum inhibitory concentration (MIC), minimum fungicidal concentration (MFC), and fractional inhibitory concentration (FIC) index (FICI) using RPMI 1640 medium buffered with MOPS. Minimal medium (containing 15 mM glucose, 10 mM magnesium sulfate, 29.4 mM potassium dihydrogen phosphate, 13 mM glycine, and 3 μM thiamine hydrochloride; pH 5.5) was used for capsule size assay and melanization assay.
Cryptococcus capsule, the structure attached to the outer surface of the cell wall and mainly composed of polysaccharides, can increase the resistance of Cryptococcus to host immune response (such as phagocytosis by macrophages) and harsh conditions (such as extreme acidity or alkalinity, high CO2 levels, or iron deprivation). To test whether eltrombopag affects capsule formation in Cryptococcus, C. neoformans H99 and C. deuterogattii R265 cells were cultured overnight in YPD media at 30° C. […] Statistical significance for the data sets was determined using a two-tailed t test.

[5] = system: C. deuterogattii 8265; assay: Disk diffusion susceptibility assay; format: cell-based, Cryptococcus deuterogattii; conditions: 10 μg per disk; 25° C., 30° C. or 37° C., 48 hours
Experimental: A disk diffusion susceptibility assay was performed to further investigate the fungistatic activity of eltrombopag at different temperatures. Briefly, C. neoformans […] or C. deuterogattii 8265 was cultured overnight at 30° C., and 100 μL of the culture (at an OD600 of about 0.1) was spread on RPMI 1640 agar plates. Paper disks (with a diameter of 6 mm) were then placed on these agar plates, and either 10 μg eltrombopag (dissolved in 5 μL DMSO) or 5 μL DMSO (control) was added to each disk. The agar plates were incubated at 25° C., 30° C., or 37° C. for 48 hours and photographed.

CC1=NN(c2ccc(C)c(C)c2)C(=O)/C1=N\Nc1cccc(-c2cccc(C(=O)O)c2)c1O [eltrombopag]
growth kinetics (cell density) ([1]; 0.06 mg/L): did not affect the growth kinetics | growth kinetics (cell density) ([1]; 0.25 mg/L or 0.5 mg/L, 37° C., 96 hours): static growth of C. neoformans was maintained | growth kinetics (cell density) ([1]; 0.5, 0.25, 0.125, 0.06 mg/L, 37° C., 4 days): inhibited the growth of C. neoformans in a dose-dependent manner | MICalone [2]: 0.5 mg/L | MICcombined of ETP ([2]; ETP in combination with AMB): 0.03 mg/L | MICcombined of ETP ([2]; ETP in combination with CsA): 1 mg/L | MICcombined of ETP ([2]; ETP in combination with FK506): 0.015 mg/L | MICcombined of ETP ([2]; ETP in combination with FLC): 0.03 mg/L | MIC ([3]; 35° C.): ~0.125 µg/mL (≈ 0.283 µM) | MFCs ([3]; Cryptococcus species): higher than 64 mg/L | capsule size [4]: capsule size significantly reduced | inhibition zones [5]: significantly larger inhibition zones were observed at 37 °C
